Results published in PMC8742467, “Therapeutical interference with the epigenetic landscape of germ cell tumors: a comparative drug study and new mechanistical insights” (Clinical Epigenetics, 2022).

Tests used:
Assay type in all cases: cell-based, Human
GCT cells = experiment: Flow cytometry cell cycle (PI), GCT cells; conditions: EC50, 16 h
Description: (§1) For Annexin V/PI staining, cells were washed with Annexin V Binding Buffer before being resuspended in 70 µl Annexin V Binding Buffer and 2.5 μl Annexin V FITC-conjugate (both Miltenyi Biotec, Bergisch Gladbach, Germany) and 15 µg PI (Sigma-Aldrich, Taufkirchen, Germany) and incubated in the dark at room temperature for 15 min. 500 µl of Annexin V Binding Buffer was added before measurement. For the cell cycle analysis, cells were washed with PBS (phosphate buffered saline), fixed by ice cold 70% ethanol and stained with 2 µg/ml PI and 200 µg/ml RNaseA (Quiagen, Hilden, Germany 100 mg/ml) in PBS shortly before every measurement. At least 5 × 10^4 cells were counted and analyzed using the MACSQuant software v 2.13.0.

[1] = test system: DNA methylation (5mC, 5hmC) in 2102EP cells; experiment: DNA slot blot (5mC, 5hmC); conditions: 24 h
Description: Purity of DNA was verified using NanoDrop 260/280 ratio and agarose gel electrophoresis. DNA was diluted in H2O to 200 ng, 100 ng and 50 ng in 200 µl per slot. Slot-Blotter device (Carl Roth GmbH + Co KG, Karlsruhe, Germany) was assembled as according to the manual. DNA was blotted onto a positively charged nylon membrane (Carl Roth GmbH + Co KG, Karlsruhe, Germany) using vacuum application. Three identical membranes were prepared. The membranes were air-dried for 15—20 min and UV-crosslinked (20 s (s), 1200 mJ/cm^2). One membrane was stained with methylene blue (0.02% methylene blue (Merck Millipore, Darmstadt, Germany) in 0.3 M sodium acetate (pH 5.2)) to validate DNA loading across the samples. The remaining two membranes were blocked in 5% milk powder in PBST for 1 h at RT. Membranes were incubated with 5mC or 5hmC antibody overnight at 4 °C. After washing, membranes were incubated with secondary antibody for 2 h at RT. Signals were detected using the ChemiDoc Imaging Systems (Bio-Rad Laboratories, Feldkirchen, Germany).

2102EP-R [2] = experiment: Flow cytometry apoptosis (Annexin V/PI), 2102EP-R; conditions: EC50, 16 h, compared to the parental cell line
[3] = test system: transcriptome of 2102EP cells; experiment: RNA sequencing; conditions: 16 h
Description: Transcriptome analysis has been performed as previously described at the core facility ‘Genomics & Transcriptomics’ (Prof. Dr. Karl Köhrer, Biomedical Research Center, Heinrich Heine University, Düsseldorf, Germany) and has been publicly shared via GEO (https://www.ncbi.nlm.nih.gov/geo/, GSE189472). RNA samples were quantified and measured as previously described. Statistical analyses were performed using the ‘Differential Expression in two groups’ tool (version 1.02) (Qiagen) and the resulting p values were corrected for multiple testing by false discovery rate (FDR). Accompanying PCA and heatmap were generated using Qlucore Omics Explorer 3.7 (Qlucore AB, Lund, Sweden). Values of solvent controls wereaveraged from the studies GSE189472, GSE190792 and GSE190022 [95].

2102EP-R [4] = experiment: Flow cytometry cell cycle (PI), 2102EP-R; conditions: EC50, 16 h
Description: as §1

[5] = test system: histone modifications in 2102EP cells; experiment: Mass spectrometry analysis of histone modifications (Mod Spec); conditions: 2102EP cells; Mod Spec raw data
Description: 2102EP cells were treated with the EC50 concentrations for Quisinostat, JIB-04, Chaetocin, MZ-1, LP99, PRT4165, GSK343 and DMSO as solvent control. The cells were harvested via trypsinization after 16 h. The mass spectrometric analysis of histone modifications was outsourced to the Mod Spec service by Active Motif (Carlsbad, CA, USA). Histone extraction and mass spectrometric analysis was performed as described previously. Raw data were transformed into z-scores as the input. The heatmap was generated in R using ‘pheatmap’ with default settings and provided by Active Motif.

Cc1ncsc1-c1ccc(CNC(=O)[C@@H]2C[C@@H](O)CN2C(=O)[C@@H](NC(=O)COCCOCCOCCNC(=O)C[C@@H]2N=C(c3ccc(Cl)cc3)c3c(sc(C)c3C)-n3c(C)nnc32)C(C)(C)C)cc1 [MZ-1]
cell cycle phase accumulation in GCT cells (GCT cells): accumulated in the G0/G1 phase | 5hmC levels increase compared to solvent control [1]: 19% | 5mC levels compared to solvent control ([1]; solvent control set to 100%): 70% | apoptosis induction in 2102EP-R (2102EP-R [2]): did not induce apoptosis | EIF3CL Log2 fold change vs. DMSO ([3]; sorted data log2>±1.5, FDR p<0.05): -2.31 | A1BG Log2 fold change vs. DMSO ([3]; unsorted data): -0.0752 | A1CF Log2 fold change vs. DMSO ([3]; unsorted data): -1.99 | A2M Log2 fold change vs. DMSO ([3]; unsorted data): 0.0948 | cell cycle arrest in 2102EP-R (2102EP-R [4]): induced a cell cycle arrest | H1.4: K25AC, % of peptide pool [5]: 0.008625% | H1.4: K25ME1, % of peptide pool [5]: 2.068% | H1.4: K25ME2, % of peptide pool [5]: 0.007907% | H1.4: K25ME3, % of peptide pool [5]: 0.004447% | H1.4: K25UN, % of peptide pool [5]: 97.9109% | H2A1: K13AC, % of peptide pool [5]: 0.01664% | H2A1: K13UN, % of peptide pool [5]: 99.9834% | H2A1: K15AC, % of peptide pool [5]: 0.002429% | H2A1: K15UB, % of peptide pool [5]: 0% | H2A1: K15UN, % of peptide pool [5]: 99.9976% | H2A3: K13AC, % of peptide pool [5]: 0.02309% | H2A3: K13UN, % of peptide pool [5]: 99.9769% | H2A3: K15AC, % of peptide pool [5]: 0.2972% | H2A3: K15UB, % of peptide pool [5]: 0% | H2A3: K15UN, % of peptide pool [5]: 99.7028% | H2A: K5AC, % of peptide pool [5]: 16.7692% | H2A: K5UN, % of peptide pool [5]: 83.2308% | H2A: K9AC, % of peptide pool [5]: 1.92% | H2A: K9UN, % of peptide pool [5]: 98.08% | H2A: K36AC, % of peptide pool [5]: 0.02873% | H2A: K36UN, % of peptide pool [5]: 99.9713% | H3: K9AC, % of peptide pool [5]: 0.8879% | H3: K9ME1, % of peptide pool [5]: 31.6276% | H3: K9ME2, % of peptide pool [5]: 28.3662% | H3: K9ME3, % of peptide pool [5]: 2.878% | H3: K9UN, % of peptide pool [5]: 36.24% | H3: K14AC, % of peptide pool [5]: 33.1456% | H3: K14UN, % of peptide pool [5]: 66.8544% | H3: K18AC, % of peptide pool [5]: 15.0157% | H3: K18ME1, % of peptide pool [5]: 0.179% | H3: K18UN, % of peptide pool [5]: 84.8052% | H3: K23AC, % of peptide pool [5]: 21.7451% | H3: K23ME1, % of peptide pool [5]: 0.008431% | H3: K23UN, % of peptide pool [5]: 78.2464% | H3: K56AC, % of peptide pool [5]: 0.06901% | H3: K56ME1, % of peptide pool [5]: 0.03638% | H3: K56UN, % of peptide pool [5]: 99.8946% | H3: K64AC, % of peptide pool [5]: 0.06102% | H3: K64UN, % of peptide pool [5]: 99.939% | H3: K79AC, % of peptide pool [5]: 0.05432% | H3: K79ME1, % of peptide pool [5]: 14.344% | H3: K79ME2, % of peptide pool [5]: 7.357% | H3: K79ME3, % of peptide pool [5]: 10.1837% | H3: K79UN, % of peptide pool [5]: 68.0612% | H3: K122AC, % of peptide pool [5]: 0.03608%
